Data on 26 molecules can be found in PubChem BioAssay AID330 (DTP/NCI, 2004).

Each structure is given as a SMILES string. “And” between values parts separate entries of the source, which are not always exact repeats. Equal entries are not always repeated. Inconclusive results and toxic doses are left out.

The assay relates to P388 leukemia ip, CD2F1 mice, survival T/C. Kind of assay: NCI In Vivo Anticancer Drug Screen. Data for tumor model P388 Leukemia (intraperitoneal) in CD2F1 (CDF1) mice. The conditions noted are these: endpoint: median survival time, higher = longer survival. In a few lines:
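Mice carrying the transplanted tumor received test compound or vehicle. Survival was recorded in each group, and the value is the treated-group measurement divided by that of the vehicle-treated control group.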

Setting [1] is: dose: 50.0 mg/kg/injection, schedule: Q01DX009 (ip), vehicle: saline.
Setting [2] is: dose: 100.0 mg/kg/injection, schedule: Q01DX009 (ip), vehicle: saline.
Where [3] appears, read: dose: 200.0 mg/kg/injection, schedule: Q01DX009 (ip), vehicle: saline.
[4] abbreviates: dose: 50.0 mg/kg/injection, schedule: Q01DX009 (ip), vehicle: saline with Tween-80.
The mark [5] stands for this setting: dose: 100.0 mg/kg/injection, schedule: Q01DX009 (ip), vehicle: saline with Tween-80.
Where [6] appears, read: dose: 200.0 mg/kg/injection, schedule: Q01DX009 (ip), vehicle: saline with Tween-80.
[7] abbreviates: dose: 60.0 mg/kg/injection, schedule: Q01DX005 (ip), vehicle: saline with Tween-80.
Where [8] appears, read: dose: 120.0 mg/kg/injection, schedule: Q01DX005 (ip), vehicle: saline with Tween-80.
[9] abbreviates: dose: 240.0 mg/kg/injection, schedule: Q01DX005 (ip), vehicle: saline with Tween-80.
The mark [10] stands for this setting: dose: 100.0 mg/kg/injection, schedule: Q01DX001 (ip), vehicle: saline with Tween-80.
Where [11] appears, read: dose: 200.0 mg/kg/injection, schedule: Q01DX001 (ip), vehicle: saline with Tween-80.
The mark [12] stands for this setting: dose: 400.0 mg/kg/injection, schedule: Q01DX001 (ip), vehicle: saline with Tween-80.

On to `CC(=O)OC(C)C1CC2C=C(C(N)=O)C1N(Cc1ccccc1)C2` (configuration not stated), for which the T/C was 97 % of control (dose: 8.75 mg/kg/injection, schedule: Q01DX005 (ip), vehicle: Klucel (hydroxypropylcellulose) (HPC)); 93 % of control (dose: 17.5 mg/kg/injection, schedule: Q01DX005 (ip), vehicle: Klucel (hydroxypropylcellulose) (HPC)); 97 % of control (dose: 35.0 mg/kg/injection, schedule: Q01DX005 (ip), vehicle: Klucel (hydroxypropylcellulose) (HPC)).
For `Nc1nc(N)nc(-c2ccccc2Cl)n1`, the T/C is 117 % of control under setting [1], 93 % of control under setting [2] and 117 % of control under setting [3].
As to `O=S(=O)(O)c1ccc(CCCCCCl)cc1`, the T/C (dose: 100.0 mg/kg/injection, schedule: Q04DX003 (ip), vehicle: saline) is 100 % of control; the T/C (dose: 200.0 mg/kg/injection, schedule: Q04DX003 (ip), vehicle: saline) is 95 % of control; the T/C (dose: 400.0 mg/kg/injection, schedule: Q04DX003 (ip), vehicle: saline) is 86 % of control.
Consider `CCOc1cccc(/C=N/n2c(-c3ccccc3)nc3ccccc3c2=O)c1O`, for which the T/C is 99 % of control under setting [4], 96 % of control under setting [5] and 105 % of control under setting [6].
For `COC(=O)C1CC1(Cl)OC` (configuration not stated), the T/C is 102 % of control under setting [4], 102 % of control under setting [5] and 105 % of control under setting [6].
Turning to `Cc1nc(C2(O)C(C3COC(C)(C)O3)OC3OC(C)(C)OC32)no1` (configuration not stated), the T/C is, setting by setting: under setting [7], 100 % of control; under setting [8], 100 % of control; under setting [9], 100 % of control.
Consider `CN(C)c1ccc(C(=C2C=CC(=[N+](C)C)C=C2)c2ccc(N(C)C)cc2)cc1` (tested in a mixture with another compound), for which the T/C (dose: 0.62 mg/kg/injection, schedule: Q01DX009 (ip), vehicle: saline with Tween-80) is 122 % of control and the T/C (dose: 2.5 mg/kg/injection, schedule: Q01DX009 (ip), vehicle: saline with Tween-80) is 120 % of control.
In the case of `CC(CCc1ccccc1)C(=O)Nc1ccccc1` (configuration not stated), the T/C (dose: 100.0 mg/kg/injection, schedule: Q04DX002 (ip), vehicle: saline with Tween-80) is 99 % of control; the T/C (dose: 200.0 mg/kg/injection, schedule: Q04DX002 (ip), vehicle: saline with Tween-80) was 96 % of control; the T/C (dose: 400.0 mg/kg/injection, schedule: Q04DX002 (ip), vehicle: saline with Tween-80) is 95 % of control.
Consider `Brc1cnc2nc(-c3cccc4ccccc34)[nH]c2c1`, for which the T/C is 96 % of control under setting [10], 94 % of control under setting [11] and 91 % of control under setting [12].
In the case of `O=C(O)/C=C\C(=O)N[C@H]1CCSC1=O`, the T/C reads like this: (dose: 60.0 mg/kg/injection, schedule: Q01DX005 (ip), vehicle: Klucel (hydroxypropylcellulose) (HPC)) 94 % of control; (dose: 120.0 mg/kg/injection, schedule: Q01DX005 (ip), vehicle: Klucel (hydroxypropylcellulose) (HPC)) 94 % of control; (dose: 240.0 mg/kg/injection, schedule: Q01DX005 (ip), vehicle: Klucel (hydroxypropylcellulose) (HPC)) 90 % of control.
Take `N#Cn1c2ccccc2c(=N)c2ccccc21`: the T/C is 103 % of control under setting [7] and 102 % of control under setting [8].
On to `Brc1cnc2nc(Cc3cccc4ccccc34)[nH]c2c1`, for which the T/C was 109 % of control under setting [10], 103 % of control under setting [11] and 97 % of control under setting [12].
As to `O=C1CCC(c2n[nH]c(=S)o2)N1Cc1ccccc1` (configuration not stated), the T/C is 98 % of control under setting [7], 100 % of control under setting [8] and 103 % of control under setting [9].
Take `O=[N+]([O-])/C=C\c1cc2c3c(c1)CCCN3CCC2`: the T/C reads like this: (dose: 12.5 mg/kg/injection, schedule: Q01DX009 (ip), vehicle: saline with Tween-80) 100 % of control; (dose: 25.0 mg/kg/injection, schedule: Q01DX009 (ip), vehicle: saline with Tween-80) 109 % of control; under setting [4], 109 % of control.
With `CCP(c1ccccc1)c1ccccc1`, the T/C was 100 % of control (dose: 100.0 mg/kg/injection, schedule: Q01DX001 (ip), vehicle: Klucel (hydroxypropylcellulose) (HPC)); 107 % of control (dose: 100.0 mg/kg/injection, schedule: Q01DX001 (ip), vehicle: saline); 98 % of control (dose: 200.0 mg/kg/injection, schedule: Q01DX001 (ip), vehicle: Klucel (hydroxypropylcellulose) (HPC)); 96 % of control (dose: 200.0 mg/kg/injection, schedule: Q01DX001 (ip), vehicle: saline); 103 % of control (dose: 400.0 mg/kg/injection, schedule: Q01DX001 (ip), vehicle: Klucel (hydroxypropylcellulose) (HPC)); 96 % of control (dose: 400.0 mg/kg/injection, schedule: Q01DX001 (ip), vehicle: saline). Further, the T/C (dose: 600.0 mg/kg/injection, schedule: Q01DX001 (ip), vehicle: Klucel (hydroxypropylcellulose) (HPC)) is 102 % of control.
Consider `CC(=O)OCC1OC(n2ccc(N)nc2=O)C(OC(C)=O)C1OC(C)=O` (configuration not stated), for which the T/C under setting [2] is 162 % of control and the T/C under setting [3] is 178 % of control.
Consider `c1ccc2c3c([nH]c2c1)CCc1cncnc1-3`, for which the T/C runs as follows: (dose: 50.0 mg/kg/injection, schedule: Q01DX005 (ip), vehicle: Klucel (hydroxypropylcellulose) (HPC)) 91 % of control and 97 % of control; (dose: 100.0 mg/kg/injection, schedule: Q01DX005 (ip), vehicle: Klucel (hydroxypropylcellulose) (HPC)) 90 % of control and 103 % of control; (dose: 200.0 mg/kg/injection, schedule: Q01DX005 (ip), vehicle: Klucel (hydroxypropylcellulose) (HPC)) 99 % of control and 115 % of control.
For the molecule `COC(=O)C(C)c1[nH]c2ccccc2c1[Se]c1ccccc1` (configuration not stated), the T/C is 102 % of control under setting [10], 106 % of control under setting [11] and 94 % of control under setting [12].
With `CCN(CC)CCNc1c(C)ccc2cccnc12`, the T/C runs as follows: (dose: 12.5 mg/kg/injection, schedule: Q01DX005 (ip), vehicle: saline) 102 % of control; (dose: 25.0 mg/kg/injection, schedule: Q01DX005 (ip), vehicle: saline) 93 % of control; (dose: 50.0 mg/kg/injection, schedule: Q01DX005 (ip), vehicle: saline) 100 % of control.
Turning to `CN(C)c1ccc(Sc2ccc3nc(N)nc(N)c3c2)cc1`, the T/C reads like this: under setting [4], 95 % of control; under setting [6], 174 % of control; (dose: 400.0 mg/kg/injection, schedule: Q01DX009 (ip), vehicle: saline with Tween-80) 117 % of control.
On to `COc1ccccc1NC(=S)N/N=C\c1cc(N=Nc2ccccc2)cc(OC)c1O`, for which the T/C (dose: 50.0 mg/kg/injection, schedule: Q01DX005 (ip), vehicle: saline with Tween-80) was 89 % of control and the T/C (dose: 100.0 mg/kg/injection, schedule: Q01DX005 (ip), vehicle: saline with Tween-80) was 89 % of control.
On to `CP1(=S)C=C(N2CCCC2)CC1` (configuration not stated), for which the T/C (dose: 50.0 mg/kg/injection, schedule: Q01DX009 (ip), vehicle: Klucel (hydroxypropylcellulose) (HPC)) is 107 % of control and 109 % of control; the T/C (dose: 100.0 mg/kg/injection, schedule: Q01DX009 (ip), vehicle: Klucel (hydroxypropylcellulose) (HPC)) is 99 % of control and 120 % of control; the T/C (dose: 200.0 mg/kg/injection, schedule: Q01DX009 (ip), vehicle: Klucel (hydroxypropylcellulose) (HPC)) is 104 % of control and 95 % of control.
Take `NC1CN2CCC1CC2` (configuration not stated): the T/C under setting [1] is 104 % of control, the T/C under setting [2] was 107 % of control and the T/C under setting [3] is 98 % of control.
In the case of `O=c1ccc2cc3ccoc3c(OCCCCCCCCCCCCOc3c4occc4cc4ccc(=O)oc34)c2o1`, the T/C was 100 % of control (dose: 6.25 mg/kg/injection, schedule: Q01DX005 (ip), vehicle: saline with Tween-80); 100 % of control (dose: 12.5 mg/kg/injection, schedule: Q01DX005 (ip), vehicle: saline with Tween-80); 88 % of control (dose: 25.0 mg/kg/injection, schedule: Q01DX005 (ip), vehicle: saline with Tween-80).
As to `COc1cc(/C=C2\N=C(c3cccc(C)c3)OC2=O)ccc1O`, the T/C runs as follows: under setting [4], 91 % of control; under setting [5], 100 % of control; under setting [6], 99 % of control.
As to `CCCCCC(=O)OCCN1CCN(CCCN2c3ccccc3Sc3ccc(C(F)(F)F)cc32)CC1`, the T/C is 113 % of control (dose: 12.5 mg/kg/injection, schedule: Q01DX009 (ip), vehicle: Klucel (hydroxypropylcellulose) (HPC)) and 101 % of control (dose: 25.0 mg/kg/injection, schedule: Q01DX009 (ip), vehicle: Klucel (hydroxypropylcellulose) (HPC)).
